Test results published in patent US20050152842A1, “Poly (L-glutamic acid) paramagnetic material complex and use as a biodegradable MRI contrast agent” (priority 2003, published 2005).

Key:
[1] = MRI studies of vascular enhancement and intravascular retention in mice; assay type: in vivo; details: dose of 0.1 mmol/kg, intravenous
Procedure: For MRI studies using complexes prepared as described in the earlier examples, mice were anesthetized with 1-2% isoflurane in a 1 L/min O2 flow and place prone within a custom sled. A custom catheter made from 2 Fr silicon tubing and a 27 gauge needle was inserted in the tail vein of the mouse. Gd-DTPA ([…]) or PG-Hex-DTPA-Gd (0.004 mmol Gd/ml, 0.02 mmol Gd/kg) was injected through the catheter and the catheter flushed with normal saline. Two-dimensional coronal section spin-echo images were obtained before and at 2 hours and 24 hours after contrast agent injection using a 2.5 cm quadrature birdcage coil on a 1.5 T Sigma LX MR scanner (GE Medical Systems, WI). Six 1.5 mm contiguous sections were obtained using a 6 cm field-of-view, a 256×192 acquisition matrix and 4 averages. Similar studies were performed with PEG/PG-Hex-DTPA-Gd.
A fast spoiled gradient-echo sequence was used to obtain the data from 8 anatomic sections with 7.1 s temporal resolution. Other acquisition parameters were echo time: 1.4 ms, repetition time: 40 ms, flip angle: 35°, acquisition matrix size: 128×128. […] Such long intravascular retention times are useful for contrast-enhanced MR angiography, for assessment of microvascular volume, and for characterizing changes in permeability of highly “leaky” vasculature. Retention of the contrast in the tumor was also noted in the same time period (FIG. 6B).

[2] = 1.5 Tesla in phosphate-buffered saline; from Unger et al. 1999; cited from earlier work
Cathepsin B = Cathepsin B (Homo sapiens, UniProt P07858)
Procedure: PG-Hex-BzDTPA-Gd was dissolved in PBS buffer (pH 5) at a concentration of 5.3 mg/ml. Cathepsin B, which is able to degrade the complex, was added to the solution to a final concentration of 10 units/ml. The degradation was monitored at different time intervals using a gel permeation chromatography (GPC) system equipped with an TSK G3000PW column (TosoHaas), a Waters 515 HPLC pump, and a Viscotek E-Z^pro triple detector array. The system was eluted with PBS buffer containing 0.1% LiBr (pH 7.4) at a flow rate of 1 ml/min.

Time in which the polymer was almost completely degraded (Cathepsin B) [min]	Degradation on incubation with Cathepsin B (in words) (Cathepsin B; pH 5)	Compound	Vascular enhancement 2 hours after injection [1]	Relaxivity R1 [2] [mM^−1Sec^−1]
–	–	O=C([O-])CN(CCN(CC(=O)[O-])CC(=O)O)CCN(CC(=O)[O-])CC(=O)O.[Gd+3] [DTPA-Gd]	not detected	4.1
100	rapidly degraded	poly(L-glutamic acid) [PG]	–	–
